Assay results as given in PMC13453949 (Journal of Advanced Research, 2025).
≈ marks a conversion by molar mass, not a printed value. Entries after “also recorded” stand apart in the source; their conditions may differ. Read-outs that look alike come from different tables or passages of the source.

Legend:
[1] = system: KB (human oral epidermoid carcinoma cells); settings: 24 h; for Cell survival rate: 128 μg/mL (highest tested)
C. albicans [2] = format: cell-based, Candida albicans; settings: α-hederin 32 μg/mL; vs untreated control (CK)
[3] = system: C. albicans hyphal formation; format: cell-based, Candida albicans; settings: RPMI-1640 + 10 % FBS, 24 h
Raw264.7 cells = settings: 24 h; for Cell survival rate: 128 μg/mL (highest tested)
293 T cells = settings: 24 h; for Cell survival rate: 128 μg/mL (highest tested)
[4] = system: ergosterol content in C. albicans; assay: Ergosterol content determination; format: cell-based, Candida albicans; settings: 16 μL/mL, compared to untreated control (CK)
C. albicans [5] = assay: Checkerboard dilution, fractional inhibitory concentration index; format: cell-based, Candida albicans
C. albicans biofilm = assay: Biofilm formation, total biofilm biomass by crystal violet staining; format: cell-based; settings: Candida albicans, 24 h, read-out: Inhibition of early biofilm formation
C. albicans [6] = assay: Murine oral candidiasis model; format: in vivo, BALB/c mice; settings: for Hemoglobin (HGB) level / Platelet (PLT) counts / White blood cell count (WBC): relative to Can group
C. albicans [7] = assay: microbe, parasite or virus in culture; format: cell-based, Candida albicans; settings: for MIC: Candida albicans, read-out: Minimum inhibitory concentration (MIC); for Fungal recovery after treatment: after 36 h of treatment
[8] = system: C. albicans mature biofilm; assay: Mature biofilm, metabolic activity by XTT reduction; format: cell-based; settings: Candida albicans, 24 h, read-out: Inhibition rate of mature biofilms
C. albicans [9] = assay: Antifungal activity test of the 17 candidate compounds against C. albicans; format: cell-based, Candida albicans; settings: tested at 12 h, 24 h and 36 h
[10] = system: C. albicans cell surface hydrophobicity; format: cell-based, Candida albicans; settings: 128 μg/mL
[11] = threshold concentration 1024 μg/mL

OC(Cn1cncn1)(Cn1cncn1)c1ccc(F)cc1F [Fluconazole, reference compound]
Cell survival rate [1]: above 80%
Internal ultrastructure (TEM) (C. albicans [2]): no comparable ultrastructural damage
Hyphal formation ([3]; 256 μg/mL): failed to achieve complete suppression
Concentration reducing hyphal formation [3]: > 32 µg/mL
Cell survival rate (Raw264.7 cells): above 80%
Cell survival rate (293 T cells): above 80%
Reduction of ergosterol content [4]: 45%
Concentration in the combination showing additive effect (C. albicans [5]): 1 µg/mL
inhibition at 256 µg/mL (C. albicans biofilm): 57%
Hemoglobin (HGB) level (C. albicans [6]; 128 μg/mL): restored
Platelet (PLT) counts (C. albicans [6]; 128 μg/mL): normalized
White blood cell count (WBC) (C. albicans [6]; 128 μg/mL): restored
Body weight change (C. albicans [6]; mouse, in vivo): rebound in body weight
Fungal growth at highest concentration (C. albicans [7]; 128 μg/mL, after 24 h): persistent fungal growth
MIC (C. albicans [7]): > 128 µg/mL
Fungal recovery after treatment (C. albicans [7]): regrowth
inhibition at 128 µg/mL [8]: 17%

CC(C)=CCC[C@](C)(O[C@@H]1O[C@H](CO[C@@H]2O[C@@H](CO)[C@H](O)[C@H]2O[C@@H]2OC[C@@H](O)[C@H](O)[C@H]2O)[C@@H](O)[C@H](O)[C@H]1O)[C@H]1CC[C@]2(C)[C@@H]1[C@H](O)C[C@@H]1[C@@]3(C)CC[C@H](O[C@@H]4O[C@H](CO)[C@@H](O)[C@H](O)[C@H]4O[C@@H]4O[C@H](CO)[C@@H](O)[C@H](O)[C@H]4O)C(C)(C)[C@@H]3CC[C@]12C [Ginsenoside Ra2]
Anti − C. albicans activity (C. albicans [9]; [11]): >1024 µg/mL

C[C@]12CCC[C@@]3(COC1=O)[C@@H]1CC[C@@H]4C[C@@]1(CC[C@@H]32)C[C@@]4(C)O [Hypodiolide A]
Anti − C. albicans activity (C. albicans [9]; [11]): >1024 µg/mL

C=C(C)C(O)COc1c2occc2cc2ccc(=O)oc12 (centres unmarked) [Isogosferol]
Anti − C. albicans activity (C. albicans [9]; [11]): >1024 µg/mL

COc1cc2ccc(=O)oc2cc1O [Scopoletol]
Anti − C. albicans activity (C. albicans [9]; [11]): >1024 µg/mL

Oc1ccc2ccccc2c1N=Nc1ccc(N=Nc2ccccc2)cc1 [Sudam Ⅲ]
Anti − C. albicans activity (C. albicans [9]; [11]): >1024 µg/mL

C[C@@H]1O[C@@H](O[C@H]2[C@H](O[C@H]3CC[C@@]4(C)[C@@H](CC[C@]5(C)[C@@H]4CC=C4[C@@H]6CC(C)(C)CC[C@]6(C(=O)O)CC[C@]45C)[C@]3(C)CO)OC[C@H](O)[C@@H]2O)[C@H](O)[C@H](O)[C@H]1O [α-Hederin]
Anti − C. albicans activity (C. albicans [9]; [11]): below 128 μg/mL
Cell survival rate [1]: above 80%
Internal ultrastructure (TEM) (C. albicans [2]): severe cytoplasmic content loss and vacuolization, thinning and irregularity of cell walls/membranes and membrane discontinuities
Hyphal formation ([3]; 128 μg/mL): partial inhibition
Hyphal formation ([3]; 256 μg/mL): completely inhibit
Reduction of cell surface hydrophobicity (CSH) [10]: 85%
Cell survival rate (Raw264.7 cells): above 80%
Cell survival rate (293 T cells): above 80%
Reduction of ergosterol content [4]: 90%
Concentration in the combination showing additive effect (C. albicans [5]; checkerboard, fluconazole plus α-hederin): 16 µg/mL
inhibition at 32 µg/mL (C. albicans biofilm): 55%
inhibition at 256 µg/mL (C. albicans biofilm): 75%
Hemoglobin (HGB) level (C. albicans [6]; 32 μg/mL): restored
Platelet (PLT) counts (C. albicans [6]; 32 μg/mL): normalized
White blood cell count (WBC) (C. albicans [6]; 32 μg/mL): restored
C. albicans colony count on tongue (C. albicans [6]; 128 μg/mL in drinking water, 5 days (128Hed)): no colonies were detected
Hemoglobin (HGB) level (C. albicans [6]; 128 μg/mL): restored
Platelet (PLT) counts (C. albicans [6]; 128 μg/mL): normalized
White blood cell count (WBC) (C. albicans [6]; 128 μg/mL): restored
Body weight change (C. albicans [6]; mouse, in vivo): rebound in body weight; also recorded: slowest initial weight loss, followed by a consistent increase
Fungal colonization of tongue (PAS staining) (C. albicans [6]; mouse, in vivo): markedly reduced fungal colonization
Fungal load on tongue (colony counts) (C. albicans [6]; α-hederin-treated group, dose not stated): significant decrease in fungal load
C. albicans growth (C. albicans [7]; 32 μg/mL): completely inhibited
MIC (C. albicans [7]): 32 µg/mL (≈ 42.6 µM)
Fungal recovery after treatment (C. albicans [7]): no fungal recovery observed
Growth inhibition of C. albicans (C. albicans [7]; at concentrations above 8 μg/mL within 24 h): 50%
inhibition at 128 µg/mL [8]: 20%

Elemicin
Anti − C. albicans activity (C. albicans [9]): <128 μL/mL
Anti − C. albicans activity (C. albicans [9]; [11]): below 128 μg/mL
Concentration with significant toxicity [1]: higher than 8 μL/mL
Concentration with significant toxicity (Raw264.7 cells): higher than 8 μL/mL
Concentration with significant toxicity (293 T cells): higher than 8 μL/mL
Minimum inhibitory concentration (MIC) (C. albicans [7]; C. albicans CMCC(F)98001, YEPD, 37 °C, 24 h and 36 h): 16 μL/mL
Inhibition of C. albicans growth (C. albicans [7]; at concentrations exceeding 0.5 μL/mL): 50 % −70

Evodiamine
Anti − C. albicans activity (C. albicans [9]; [11]): >1024 µg/mL

Strictosamide
Anti − C. albicans activity (C. albicans [9]; [11]): >1024 µg/mL

Triptofordin
Anti − C. albicans activity (C. albicans [9]; [11]): >1024 µg/mL
